Source: the supplement of paper PMC6965134
± gives the standard deviation of the averaged measurements.

Experiment: TIMS collisional cross section (CCS, N2) of the lipid ion; higher = larger ion cross section
Details: sample type: HeLa; ionization mode: positive; one isomer drawn

Row | TIMS collisional cross section [Å²] | Structure (SMILES)
1 | 247.3 | CCCCCCCCCC/C=C\CCCCCCCCCC(=O)OC[C@@H](O)COP(=O)([O-])OCC[N+](C)(C)C [LPC 22:1] (ion (formula + adduct): [C30H60NO7P+H] 1+)
2 | 246.1 | CCCCCCCCCC/C=C\CCCCCCCCCC(=O)OC[C@@H](O)COP(=O)([O-])OCC[N+](C)(C)C [LPC 22:1_0:0] (ion (formula + adduct): [C30H60NO7P+H] 1+)
3 | 232.9 | CCCCC/C=C\C/C=C\C/C=C\C/C=C\C/C=C\CCC(=O)OC[C@@H](O)COP(=O)([O-])OCC[N+](C)(C)C [LPC 22:5] (ion (formula + adduct): [C30H52NO7P+H] 1+)
4 | 232.4 | CC/C=C\C/C=C\C/C=C\C/C=C\C/C=C\C/C=C\CCC(=O)OC[C@@H](O)COP(=O)([O-])OCC[N+](C)(C)C [LPC 22:6] (ion (formula + adduct): [C30H50NO7P+H] 1+)
5 | 258.5 | CCCCCCCCCCCCCCCCCCCCCCCC(=O)OC[C@@H](O)COP(=O)([O-])OCC[N+](C)(C)C [LPC 24:0] (ion (formula + adduct): [C32H66NO7P+H] 1+)
6 | 253.5 | CCCCCCCC/C=C\CCCCCCCCCCCCCC(=O)OC[C@@H](O)COP(=O)([O-])OCC[N+](C)(C)C [LPC 24:1] (ion (formula + adduct): [C32H64NO7P+H] 1+)
7 | 225.4 | CCCC/C=C\CCCCCCCCCCOC[C@@H](O)COP(=O)([O-])OCC[N+](C)(C)C [LPC O- 16:1] (ion (formula + adduct): [C24H50NO6P+H] 1+)
8 | 238.4 | CCCCCCCCCCCCCCCCCCOC[C@@H](O)COP(=O)([O-])OCC[N+](C)(C)C [LPC O- 18:0] (ion (formula + adduct): [C26H56NO6P+H] 1+)
9 | 233.6 | CCCCCC/C=C\CCCCCCCCCCOC[C@@H](O)COP(=O)([O-])OCC[N+](C)(C)C [LPC O- 18:1] (ion (formula + adduct): [C26H54NO6P+H] 1+)
10 | 214.5 | CCCCCCCCCCCCCCCC(=O)OC[C@@H](O)COP(=O)(O)OCCN [LPE 16:0] (ion (formula + adduct): [C21H44NO7P+H] 1+)
11 | 217.4 | CCCCCCCCCCCCCCCC(=O)OC[C@@H](O)COP(=O)(O)OCCN [LPE 16:0_0:0] (ion (formula + adduct): [C21H44NO7P+H] 1+)
12 | 210.1 | CCCCCC/C=C\CCCCCCCC(=O)OC[C@@H](O)COP(=O)(O)OCCN [LPE 16:1_0:0] (ion (formula + adduct): [C21H42NO7P+H] 1+)
13 | 221.7 | CCCCCCCCCCCCCCCCCC(=O)O[C@H](CO)COP(=O)(O)OCCN [LPE 18:0] (ion (formula + adduct): [C23H48NO7P+H] 1+)
14 | 218.1 | CCCCCC/C=C\CCCCCCCCCC(=O)O[C@H](CO)COP(=O)(O)OCCN [LPE 18:1] (ion (formula + adduct): [C23H46NO7P+H] 1+)
15 | 229.2 | CCCCCCCCCCCCCCCCCCCC(=O)OC[C@@H](O)COP(=O)(O)OCCN [LPE 20:0] (ion (formula + adduct): [C25H52NO7P+H] 1+)
16 | 216.8 | CCCCC/C=C\C/C=C\C/C=C\CCCCCCC(=O)OC[C@@H](O)COP(=O)(O)OCCN [LPE 20:3] (ion (formula + adduct): [C25H46NO7P+H] 1+)
17 | 236.4 | CCCCCCCCCCCCCCCCCCCCCC(=O)OC[C@@H](O)COP(=O)(O)OCCN [LPE 22:0] (ion (formula + adduct): [C27H56NO7P+H] 1+)
18 | 223.8 | CCCCC/C=C\C/C=C\C/C=C\C/C=C\CCCCCC(=O)OC[C@@H](O)COP(=O)(O)OCCN [LPE 22:4] (ion (formula + adduct): [C27H48NO7P+H] 1+)
19 | 220.9 | CCCCC/C=C\C/C=C\C/C=C\C/C=C\C/C=C\CCC(=O)OC[C@@H](O)COP(=O)(O)OCCN [LPE 22:5] (ion (formula + adduct): [C27H46NO7P+H] 1+)

Row | Structure (SMILES) | TIMS collisional cross section [Å²]
20 | CCCCCCCCCCCCCCCCOC[C@@H](O)COP(=O)([O-])OCC[N+](C)(C)C [LPC O- 16:0] (ion (formula + adduct): [C24H52NO6P+H] 1+) | 230.5
21 | CCCCCCCC/C=C\CCCCCCCC(=O)OC[C@@H](O)COP(=O)(O)OCCN [LPE 18:1] (ion (formula + adduct): [C23H46NO7P+H] 1+) | 216.4

Same assay, conditions: sample type: Liver; ionization mode: positive; one isomer drawn

Row | TIMS collisional cross section [Å²] | Structure (SMILES)
22 | 231.55 ± 1.1 | CCCCC/C=C\C/C=C\C/C=C\CCCCCCC(=O)OC[C@@H](O)COP(=O)([O-])OCC[N+](C)(C)C [LPC 20:3_0:0] (ion (formula + adduct): [C28H52NO7P+H] 1+)
23 | 234.5 | CC/C=C\C/C=C\C/C=C\C/C=C\C/C=C\C/C=C\CCC(=O)OC[C@@H](O)COP(=O)([O-])OCC[N+](C)(C)C [LPC 22:6] (ion (formula + adduct): [C30H50NO7P+H] 1+)
24 | 258.9 | CCCCCCCCCCCCCCCCCCCCCCCC(=O)OC[C@@H](O)COP(=O)([O-])OCC[N+](C)(C)C [LPC 24:0] (ion (formula + adduct): [C32H66NO7P+H] 1+)
25 | 253.85 ± 0.49 | CCCCCCCC/C=C\CCCCCCCCCCCCCC(=O)OC[C@@H](O)COP(=O)([O-])OCC[N+](C)(C)C [LPC 24:1] (ion (formula + adduct): [C32H64NO7P+H] 1+)
26 | 238.2 | CCCCCCCCCCCCCCCCCCOC[C@@H](O)COP(=O)([O-])OCC[N+](C)(C)C [LPC O- 18:0] (ion (formula + adduct): [C26H56NO6P+H] 1+)
27 | 214.5 | CCCCCCCCCCCCCCCC(=O)O[C@H](CO)COP(=O)(O)OCCN [LPE 16:0] (ion (formula + adduct): [C21H44NO7P+H] 1+)
28 | 215.9 ± 2.1 | CCCCCCCCCCCCCCCC(=O)OC[C@@H](O)COP(=O)(O)OCCN [LPE 16:0] (ion (formula + adduct): [C21H44NO7P+H] 1+)
29 | 207.8 | CCCCCC/C=C\CCCCCCCC(=O)OC[C@@H](O)COP(=O)(O)OCCN [LPE 16:1] (ion (formula + adduct): [C21H42NO7P+H] 1+)
30 | 222 | CCCCCCCCCCCCCCCCCC(=O)O[C@H](CO)COP(=O)(O)OCCN [LPE 18:0] (ion (formula + adduct): [C23H48NO7P+H] 1+)
31 | 215.4 | CCCCCC/C=C\CCCCCCCCCC(=O)O[C@H](CO)COP(=O)(O)OCCN [LPE 18:1] (ion (formula + adduct): [C23H46NO7P+H] 1+)
32 | 211.45 ± 1.1 | CCCCC/C=C\C/C=C\CCCCCCCC(=O)OC[C@@H](O)COP(=O)(O)OCCN [LPE 18:2] (ion (formula + adduct): [C23H44NO7P+H] 1+)

Row | Structure (SMILES) | TIMS collisional cross section [Å²]
33 | CCCCC/C=C\C/C=C\C/C=C\C/C=C\CCCC(=O)OC[C@@H](O)COP(=O)([O-])OCC[N+](C)(C)C [LPC 20:4] (ion (formula + adduct): [C28H50NO7P+H] 1+) | 230
34 | CCCCCCCC/C=C\CCCCCCCC(=O)OC[C@@H](O)COP(=O)(O)OCCN [LPE 18:1] (ion (formula + adduct): [C23H46NO7P+H] 1+) | 217 ± 2
